Test [1] addresses T1, Urease (Canavalia ensiformis, UniProt P07374). Briefly: Inhibition of jack bean urease using urea as substrate assessed as ammonia production after 15 mins by indophenol method. To be noted: for pIC50: read-out: IC50.
Test [2] has as its target T1, Urease. Briefly: (§1) Competitive inhibition of jack bean urease using urea as substrate assessed as ammonia production after 15 mins by Lineweaver-Burk/Dixon plot analysis.
The target of test [3] is Urease (Canavalia ensiformis) (UniProt P07374). The test is described as §1.
Chain of Urease (Canavalia ensiformis) (P07374 whole entry, looked up): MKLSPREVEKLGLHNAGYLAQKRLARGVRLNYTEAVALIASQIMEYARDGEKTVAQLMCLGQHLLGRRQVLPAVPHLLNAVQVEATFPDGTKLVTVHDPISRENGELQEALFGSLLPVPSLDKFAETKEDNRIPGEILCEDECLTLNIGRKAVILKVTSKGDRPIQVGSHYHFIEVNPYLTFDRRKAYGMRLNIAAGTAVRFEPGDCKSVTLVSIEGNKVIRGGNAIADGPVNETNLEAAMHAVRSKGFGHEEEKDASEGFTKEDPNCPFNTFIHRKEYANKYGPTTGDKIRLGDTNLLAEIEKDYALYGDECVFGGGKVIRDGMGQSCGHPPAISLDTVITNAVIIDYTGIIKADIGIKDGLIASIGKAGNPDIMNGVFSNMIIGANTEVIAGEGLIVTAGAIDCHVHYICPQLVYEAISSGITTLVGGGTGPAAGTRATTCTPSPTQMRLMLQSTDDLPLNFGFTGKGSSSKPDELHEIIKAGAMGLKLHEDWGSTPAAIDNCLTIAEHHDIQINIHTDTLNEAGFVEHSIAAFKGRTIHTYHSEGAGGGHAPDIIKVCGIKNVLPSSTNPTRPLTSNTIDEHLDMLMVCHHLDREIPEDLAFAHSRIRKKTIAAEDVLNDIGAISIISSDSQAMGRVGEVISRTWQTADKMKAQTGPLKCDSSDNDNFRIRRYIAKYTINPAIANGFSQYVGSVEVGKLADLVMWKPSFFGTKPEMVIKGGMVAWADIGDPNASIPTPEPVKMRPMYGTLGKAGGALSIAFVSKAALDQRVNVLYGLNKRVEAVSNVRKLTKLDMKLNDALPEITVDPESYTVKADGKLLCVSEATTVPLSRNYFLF
The target of test [4] is T1, Urease. Briefly: (§2) Mixed-type inhibition of jack bean urease using urea as substrate assessed as ammonia production after 15 mins by Lineweaver-Burk/Dixon plot analysis.
Test [5] concerns the target Urease (Canavalia ensiformis) (UniProt P07374). The description is as §2.
In test [6] the target is T1, Urease. Briefly: (§3) Non-competitive inhibition of jack bean urease using urea as substrate assessed as ammonia production after 15 mins by Lineweaver-Burk/Dixon plot analysis.
Test [7] has as its target Urease (Canavalia ensiformis) (UniProt P07374). Described as §3.

pIC50, pKi: −log10 of the molar value.

T1 sequence (P07374 whole entry): as the sequence (P07374 whole entry, looked up) above

Regarding `S=C(Nc1ccccc1)Nc1ncc(Cl)cc1Cl`, the pIC50 on Urease [1] was 4.43.
`Cc1nc(NC(=S)Nc2ccccc2)ccc1Br`: the pIC50 at Urease [1] was 4.08.
For `S=C(Nc1cccc(Cl)c1)Nc1cccnc1Cl`, the IC50 entry on Urease [1] is reported as “Not Active”.
As to `S=C(Nc1ccccc1)Nc1cccnc1Cl`, the IC50 result on Urease [1] is reported as “Not Active”.
Regarding `S=C(Nc1cccc(Cl)c1)Nc1ccccc1Cl`, the pIC50 on Urease [1] is 4.65.
Regarding `S=C(Nc1cccc(Cl)c1)Nc1ccc(Cl)c(Cl)c1`, the pIC50 on Urease [1] was 4.96. In addition, the pKi on Urease [2] was 4.93. Further, the inhibition entry in test [3] was “Dose-dependent effect”.
Turning to `Cc1ccc(C)c(NC(=S)Nc2cccc(Cl)c2)c1`, the pIC50 at Urease [1] was 4.68. In addition, the pKi on Urease [4] is 4.71. Also, the inhibition result in test [5] was “Dose-dependent effect”.
Take `Cc1ccc(NC(=S)Nc2cccc(Cl)c2)cc1`: the negative logarithm of the IC50 (pIC50) on Urease [1] was 4.73. Also, on Urease [6], the pKi is 4.92. In addition, the inhibition result in test [7] was “Dose-dependent effect”.
As to `Cc1cccnc1NC(=S)Nc1cccc(Cl)c1`, the pIC50 at Urease [1] is 4.80.
As for `S=C(Nc1ccccc1)Nc1ccc(Br)cc1`, the pIC50 at Urease [1] was 4.47.
Take `S=C(NCc1cccnc1)Nc1cccc(Cl)c1`: the negative logarithm of the IC50 (pIC50) at Urease [1] was 4.64.
For `Fc1ccc(NC(S)=Nc2cccc(Cl)c2)cc1`, the inhibition result in test [5] was “Dose-dependent effect”.
For `S=C(Nc1cccc(Cl)c1)Nc1cccc(Cl)c1Cl`, the pIC50 on Urease [1] is 4.57.
With `S=C(Nc1ccccc1)Nc1cccnc1`, the pIC50 on Urease [1] was 5.07. Moreover, the negative logarithm of the Ki (pKi) on Urease [2] was 5.07. The inhibition entry in test [3] was “Dose-dependent effect”.
On to `S=C(Nc1cccnc1)Nc1cccc(Cl)c1`, for which, at Urease [1], the pIC50 was 4.61.
Regarding `S=C(Nc1cccc(Cl)c1)Nc1c(Cl)cccc1Cl`, on Urease [1], the negative-log IC50 (pIC50) was 4.39.
Same read-out and setting: in the case of `S=C(NCc1ccco1)Nc1ccccc1` it was 4.49.
In the case of `COc1ccc(NC(=S)Nc2cccc(Cl)c2)cc1`, the pIC50 at Urease [1] is 4.53.
On the same count and under the same terms, in the case of `Cc1cccc(C)c1NC(=S)Nc1cccc(Cl)c1` it was 4.56; in that of `S=C(NCc1cccnc1)Nc1ccccc1`, 4.47; in that of `S=C(NCc1ccncc1)Nc1ccccc1`, 4.49.
Take `S=C(Nc1ccccc1)Nc1cccc(Br)c1`: the pIC50 at Urease [1] was 4.74. Besides, the pKi on Urease [4] is 4.81. The inhibition entry in test [5] was “Dose-dependent effect”.
Consider `S=C(Nc1ccccc1)Nc1ccncc1`, for which the pIC50 at Urease [1] is 4.36.
For the compound `Cc1ccc(NC(=S)Nc2cccc(Cl)c2)c(C)c1`, the pIC50 at Urease [1] was 4.62.
For the compound `Cc1ccc(Cl)cc1NC(=S)Nc1cccc(Cl)c1`, the pIC50 on Urease [1] was 4.70. For the same compound, the negative logarithm of the Ki (pKi) on Urease [4] was 4.73. Besides, the inhibition entry in test [5] is “Dose-dependent effect”.
On to `Fc1ccc(NC(=S)Nc2cccc(Cl)c2)cc1F`, for which the pIC50 at Urease [1] is 4.79.
Turning to `S=C(NCc1ccncc1)Nc1cccc(Cl)c1`, the negative-log IC50 (pIC50) on Urease [1] was 4.64.
Regarding `COc1ccccc1NC(=S)Nc1cccc(Cl)c1`, the pIC50 at Urease [1] was 4.70.
On the same count and under the same terms, to `Cc1cccnc1NC(=S)Nc1ccccc1` belongs 4.60.
As for `Cc1cccc(NC(=S)Nc2cccc(Cl)c2)c1`, the pIC50 at Urease [1] was 4.82. Further, the pKi at Urease [4] is 4.80. Further, the inhibition result in test [5] was “Dose-dependent effect”.
On to `COc1cccc(NC(=S)Nc2cccc(Cl)c2)c1`, for which, on Urease [1], the pIC50 was 4.61.
Consider `Cc1ccccc1NC(=S)Nc1cccc(Cl)c1`, for which, on Urease [1], the pIC50 was 4.46.
Same read-out and setting: in the case of `S=C(Nc1cccc(Cl)c1)Nc1ccc(Cl)cc1Cl` it was 4.37.
`Fc1ccc(NC(=S)Nc2cccc(Cl)c2)cc1`: the pIC50 on Urease [1] was 4.72. Besides, the pKi at Urease [4] is 4.77.
`COc1ccc(OC)c(NC(=S)Nc2ccccc2)c1`: at Urease [1], the pIC50 was 4.52.
Take `NC(N)=S` [THIOUREA]: the pKi on Urease [2] is 4.70.
For the compound `S=C(Nc1ccc(Cl)cc1)Nc1cccc(Cl)c1`, the pIC50 on Urease [1] was 4.69. For the same compound, at Urease [4], the pKi was 4.74. In test [5], the inhibition result is “Dose-dependent effect”.
Consider `Fc1ccc(NC(=S)Nc2ccccc2)c(F)c1`, for which, at Urease [1], the pIC50 was 4.61.
In the case of `S=C(Nc1cccc(Cl)c1)Nc1cccc(Cl)c1`, the pIC50 at Urease [1] is 4.70. For the same compound, on Urease [4], the negative-log Ki (pKi) is 4.74. Further, in test [5], the inhibition entry is “Dose-dependent effect”.
Take `S=C(Nc1ccccc1)Nc1ccccn1`: the pIC50 on Urease [1] was 4.63.

The term pIC50 denotes the IC50 on a negative log10 scale, so that one unit is a factor of ten. Usually pKi stands for −log10 of the Ki, conventionally taken in molar units.

The record behind these values is ChEMBL document CHEMBL3120147, “Synthesis and in vitro urease inhibitory activity of N,N'-disubstituted thioureas” (Eur J Med Chem, 2014).
